Entries after “also recorded” stand apart in the source; their conditions may differ. Ends that are not written are not given here.
How the values were obtained:
MMP-1 = experiment: Genes regulated by E4: MMP-1; assay type: cell-based, human; conditions: HuF-T; RT-qPCR, protein expression levels, zymography, MMP-1 activity assay
Protocol: (§1) Several experiments have been performed to identify the mechanisms by which E4 exerts its anti-fibrotic activity. Real-time quantitative PCR (qPCR)-based arrays were performed on RNA extracted from primary human lung fibroblasts or mouse lung tissue stimulated with various fibrotic triggers in the absence and presence of E4 treatment in order to identify genes influenced by the endostatin peptide.
(§2) The arrays identified several genes that have been previously implicated in fibrosis to be influenced by E4 treatment. These genes included connective tissue growth factor (CTGF), insulin-like growth factor binding protein (IGFBP)-3, matrix metalloproteases (MMP)-1 and MMP-3, urokinase plasminogen activator (uPA), plasminogen activator inhibitor (PAI)-1, and hepatocyte growth factor (HGF) with levels either decreased or increased in the presence of E4 as shown in TABLE 5.

[1] = tested on: bleomycin induced lung fibrosis; experiment: Bleomycin-induced pulmonary fibrosis in mice (E4); assay type: in vivo, mouse
Protocol: FIG. 10A-10C. E4 attenuates bleomycin induced lung fibrosis in vivo. FIG. 10A: Sixty μg of bleomycin was administrated intratracheally in combination with DMSO as a vehicle (Bleo) or E-4 (Bleo+E-4; 10 μg/ml). In some mice, E-4 (10 μg/ml) was administered intratracheally (IT) three days following bleomycin treatment (Bleo+E-4L). PBS was used as a vehicle for bleomycin (V). Lungs were harvested 10 days post-treatment. Representative images stained with H&E (left panel) and Masson trichrome (right panel) are representative of 3 independent experiments. Magnification, 100×. […] FIG. 10B: Quantification of acid soluble collagen obtained from mouse lungs treated with V. Bleo, Bleo+E-4, and Bleo+E-4L. The levels of collagen are presented as μg/mg (lung) from three independent experiments. Unpaired-t test was used for statistical analysis. *P<0.05. […] FIG. 10C: Lower magnification (2×) of mouse lung shown in FIG. 9 (BLM+E4/E4L IT day 10). For Bleo+E4L, Bleo was administered first, then there was a lag of three days between Bleo and E4 administration).
FIG. 11. […]
E4, a peptide representing the carboxy terminus of human endostatin, can attenuate fibrosis triggered by multiple fibrogenic factors. The anti-fibrotic effects of E4 can be detected whether administered concomitantly with or following the fibrogenic trigger. […]
For these studies, fibrosis was assessed by measurement of dermal thickness on H&E skin sections (skin), assessment of collagen levels by Masson Trichrome staining (skin and lung), and measurement of collagen levels by Sircol assay (lung). Furthermore, to confirm the mechanism by which E4 exerts its anti-fibrotic effects, the production of extra-cellular matrix (ECM) components, the levels of enzymes that promote matrix stabilization and thus accumulation and levels of those that degrade ECM components, and levels of transcription factors downstream of the pro-fibrotic triggers were evaluated. Results were assessed using the unpaired t test and the 3-way ANOVA (for the ID1 data).

IGFBP-3 = experiment: Genes regulated by E4: IGFBP-3; assay type: cell-based, human; conditions: HuF-T; RT-qPCR, protein expression levels
Protocol: as §1, §2

CTGF = experiment: Genes regulated by E4: CTGF; assay type: cell-based; conditions: primary human fibroblasts treated with bleomycin or TGF-β; RT-qPCR
Protocol: as §1, §2

Egr-1 = experiment: Western blot of Egr-1 in primary human lung fibroblasts; assay type: cell-based; conditions: harvested after 24 hours
Protocol: FIG. 16. […] Reduction of Egr-1 levels parallels that of collagen, SMA, and fibronectin. Lane 1: vehicle (DMSO); Lane 2: E4; Lane 3: TGFβ, Lane 4 TGFβ followed by E4 after 60 minutes. The samples were harvested after 24 hours.
In addition, E4 increases levels of inhibitor of differentiation (ID)-1, a transcription factor that inhibits TGF-β effects (see FIG. 15). It was determined in a Western blot analysis that E4 reduces the levels of the master switch transcription factor, Egr-1 (see FIG. 16) in primary human lung fibroblasts, treated and harvested after 24 hours. The reduction of Egr-1 levels parallels a reduction in collagen, SMA and fibronectin. Egr-1 is known to mediate the effects of several fibrotic agents (including TGF-β and bleomycin).

HUVECs = experiment: Tubular formation assay in MATRIGEL; assay type: cell-based, human; conditions: 50 nM, 24 hours
Protocol: Tubular formation assay. The ability of endostatin peptide to inhibit angiogenesis was examined in tubular formation assay using MATRIGEL® culture. Human umbilical vein endothelial cells (HUVECs) were maintained in endothelial cell basal medium-2 (EBM-2; Clonetics, San Diego, CA) supplemented with EBM-2 MV SINGLEQUOTS®. HUVECs (5×10^4) were cultured in duplicate on 24-well MATRIGEL® plates (BD Biosciences, San Diego, CA) alone, or in the presence of rE or E4 peptide (50 nM) in EBM-2 at 37° C. DMSO was used as vehicle control. After 24 hours, images were captured using a […] microscope. The degree of cord formation was quantified by measuring the area occupied by tubes in 6 random fields per well. Three independent experiments were performed.

[2] = tested on: bleomycin induced dermal fibrosis; experiment: Bleomycin-induced dermal fibrosis in mouse skin; assay type: in vivo; conditions: single administration of E4 10 μg/ml on first day, daily bleomycin; skin harvested after 10 days
Protocol: FIGS. 8A-8B. The effect of endostatin E-4 on bleomycin induced dermal fibrosis in vivo. FIG. 8A: Mice were injected subcutaneously with 1×PBS as vehicle (V) or Bleomycin (Bleo; 20 μg/mouse) daily. E-4 (10 μg/ml) was mixed with bleomycin on the first day, and daily bleomycin administration was continued without subsequent injections of E4 (Bleo+E-4). Skin was harvested after 10 days. Sections were stained with H&E. Magnification, 100×. Data represent three independent experiments. Mann-Whitney U test was used for statistical analysis. * P<0.001, **P<0.00001.
E4, a peptide representing the carboxy terminus of human endostatin, can attenuate fibrosis triggered by multiple fibrogenic factors. The anti-fibrotic effects of E4 can be detected whether administered concomitantly with or following the fibrogenic trigger. The efficacy of E4 was confirmed in […] pre-clinical models of fibrosis: a) bleomycin-induced dermal fibrosis in vivo in mouse skin, b) TGF-β induced dermal fibrosis in mouse skin, and c) bleomycin-induced pulmonary fibrosis. […]
For these studies, fibrosis was assessed by measurement of dermal thickness on H&E skin sections (skin), assessment of collagen levels by Masson Trichrome staining (skin and lung), and measurement of collagen levels by Sircol assay (lung). […] Results were assessed using the unpaired t test and the 3-way ANOVA (for the ID1 data).

Q: How did the “Effect of E4 peptide on MMP-1” value (MMP-1) turn out when “E4: SEQ ID NO: 21, amino acids 133-180 of human endostatin with a C-terminal amide (SYCETWRTEAPSATGQASSLLGGRLLGQSAASCHHAYIVLCIENSFMT-NH2; cysteine pairing not given here)” was run?
A: induces; also recorded: Increase; also recorded: increased levels and activity

Q: What about the “fibrosis and Masson Trichrome staining in lung” value ([1]; E4 10 μg/ml IT concomitantly with or three days following bleomycin, day 10) of the same substance?
A: marked reduction

Q: And the “collagen levels in mouse lungs” value ([1]; E4 given 3 days after bleomycin, acid soluble collagen)?
A: significantly reduced

Q: And the “bleomycin induced lung fibrosis on day 21” value ([1]; bleomycin IT day 1, E4 IP or IT at day 3)?
A: significant attenuation

Q: What about the “Effect of E4 peptide on IGFBP-3” value (IGFBP-3) of the same substance?
A: reduces; also recorded: Decrease

Q: What about the “Effect of E4 peptide on CTGF” value (CTGF) of the same substance?
A: reduces; also recorded: Decrease

Q: What about the Egr-1 levels (Egr-1) of the same substance?
A: reduces

Q: What about the Egr-1 levels (Egr-1; listed as E-4) of the same substance?
A: reducing levels

Q: What about the “inhibition of tubular structure formation (anti-angiogenic activity)” value (HUVECs) of the same substance?
A: modest and low and minimal anti-angiogenic activity

Q: What about the “bleomycin induced dermal fibrosis” value [2] of the same substance?
A: significant attenuation

From US11912755B2, “Endostatin fragments and variants for use in treating fibrosis” (iBio, Inc., priority 2015, dated 2024)
